# Measured values: patent US20120040939A1, “MEDICINAL USE OF 5-BENZYLAMINOSALICYLIC ACID DERIVATIVE OR ITS SALT” (priority 2009, published 2012)
# Key:
# Format in all cases: in vivo
# male C57BL/6 mice [1] = experiment: Stress-induced anxiety (restraint stress), elevated plus maze (EPM); conditions: EPM 5 minutes
# Description: To evaluate the effect of compound 2 on stress-induced anxiety, we used a restraint stress animal model. Anxiety was evoked by exposing stress that a mice was restrained to be immovable in a narrow space, and whether the compound could show anxiolytic effect after administration the animals.
# When experimental animals are exposed to stress, various physiological changes occur, which can be measured through several behavioral tests. In this study, anxiety of experimental animals was evaluated by an elevated plus maze (EPM). EPM apparatus consisted of two open arms, and two closed arms which are horizontally crossed. It is designed that the cross path is located 60 cm above the floor for the animals to feel anxiety. […]
# At the day of experiment, animals exposed to restraint stress after animals were acclimatized to testing room over 60 minutes, and then were orally administered with the compound. One hour after administration the oral administration of compound 2 or lutrol, experimental animals were placed at the center of EPM and the animal behaviors were recorded during total 5 minutes using a camera mounted on the ceiling and a computer program (etho vision 3.0 (Noldus Information Technology)). The collected data were expressed as % time spent in open arms and the statistical analysis was done using one-way ANOVA followed by LSD (Least significant difference) post hoc comparisons.
# Sprague-Dawley (SD) rats = experiment: Water immersion restraint stress (WIRS) gastric damage model; conditions: 30 mg/kg, given 1 hour before 10 hours WIRS
# Description: The Sprague-Dawley (SD) rats weighing 200 g of body weight were deprived of food for over 24 hours and then were given with the experimental compound. After 1 hour, the rats were placed in a stress cage and immersed into water at 24° C. for 10 hours to induce WIRS
# The SD rats weighing 200 g of body weight were deprived of food for 24 h and then were given with 30 mg/kg of compound 2. After 1 hour, the rats were placed in a stress cage and immersed into water for 10 hours. After WIRS for 10 hours, the rats were sacrificed under anesthesia with ether. Each stomach was isolated, soaked and fixed in 10 ml of 2% formalin solution for 10 minutes, and then opened along the greater curvature of the stomach. After spreading the stomach, stress-induced hemorrhagic lesions were examined macroscopically, and the results were shown in FIG. 2.
# male C57BL/6 mice [2] = experiment: Forced swimming test, antidepressant effect; conditions: final 4 min of 6-min session
# Description: Forced swimming test is used to select compounds with therapeutic efficacy for depression. […] The immobility time is counted whenever the animal remained floating passively in the water without struggling except minimal movement to protrude its head above the water surface.
# (§1) Nine-week-old male C57BL/6 mice weighing 20-23 g of body weight were used through this study. Experimental animals were kept in an animal breeding room with a 12 h dark/12 h light cycle and accommodated by 8 mice per cage supplied freely with water and feeding. The mice consisted of 8 animals per group were randomly allocated to the treatment groups.
# (§2) Compound 2 was suspended in 10% lutrol solution and all the suspended solutions were administered orally to the mice twice daily at a volume of 5 ml/kg. The control group was treated only with 10% lutrol solution in the same manner. All the treatment of drugs or vehicle to the animals were given 1 hour before the test (n=8/group).
# At the day of the experiment, the mice were acclimatized in the testing room over 60 minutes, orally given with the compound 2 or vehicle control, and received the forced swimming test. For the forced swimming test, a mouse was individually forced to swim inside an open glass cylindrical bath with height of 26 cm and diameter of 14 cm filled with water at 24±1° C. up to 16 cm high from the bottom so that the mouse tail could not reach the bottom. One hour after the mouse were orally given compound 2 and control vehicle, then the mice were exposed to forced swimming for 6 min in the water bath and their movement was recorded using a video camera system. The total duration of immobility was measured as a mean during the final 4 min of a 6-min test session and the data were statistically analyzed with one-way ANOVA followed by Tukey's HSD (Honestly Significant Difference) post hoc comparison.
# male C57BL/6 mice [3] = experiment: Repeated restraint stress test with forced swim test as index for depression; conditions: for decrease of immobility time compared with stressed control group (control 2): forced swim test; for decrease of immobility time compared with unstressed group (control 1): no stress, forced swimming test
# Description: To test the efficacy of compounds on a stress-induced depression a restraint stress animal model was used. After evoking depression symptoms in a mouse corresponding to a human depression by exposing a stressed condition that it was placed in a narrow space to be unable to move, whether the compounds have any anti-depression effects were tested after treatment to this animal.
# as §1, with “by 5-6” for “by 8”, “of 11” for “of 8”
# as §2, with “(n=11/group).” for “(n=8/group).”
# Animals were subjected to restraint-stress one hour after compound 2 or 10% lutrol was administered orally. Mice were exposed to restraint stress everyday 2 hr for 14 days and received a forced swim test such as <Example 4> as an index for depression.
# Male ICR mice [4] = experiment: Locomotor activity using open field test; conditions: 1.25-50 mg/kg oral, twice daily; 1 hour before the test
# Description: The locomotor activity using open field test measured to know influence of drug treatment on activity in animals. Male ICR mice weighing 20-23 g of body weight were used throughout the study.
# Experimental animals were kept in an animal breeding room with a […] cycle and accommodated by 8 mice per cage supplied freely with water and feeding. The mice consisted of 8 animals per group were randomly allocated to the treatment groups.
# as §2
# The open field was consisted of square arena (58 cm×58 cm) surrounded by a 30 cm height wall. […] At the start of each trial, a mouse was placed in a corner of the field and was allowed to freely move the arena and the moving trajectory for 5 min was measured. The behavior of animals was recorded and analyzed using a videotracking software (Etho Vision 3.0, Noldus Information Technology, Leesburg, Va.) attached to the ceiling above the middle of the arena.
# The collected data were analyzed by one-way ANOVA followed by Tukey's HSD (Honestly Significant Difference) post hoc comparison.
# Male ICR mice [5] = experiment: Tail suspension test (TST), antidepressant effect; conditions: twice daily, final 4 min of 6 min test, 1 h after treatment
# Description: The effectiveness of the compound was evaluated using a tail-suspension test as in vivo method for depression. In this test immobility time of animals typically for 5-10 minutes is recorded using a manual or an automated device.
# as §1, with “Male ICR” for “Nine-week-old male C57BL/6”, “28-30” for “20-23”, “throughout the” for “through this”
# as §2, with “and the” for “and”, “all” for “all the”, “4” for “5”
# This test was evaluated according to the method described in a previous publication [Psycopharmacology 85, 367-370, Steru et al. (1985)]. At the day of experiment, the mice were acclimatized in the testing room over 60 minutes and given with the compound, and then the test was conducted. After 1 h after drug treatment, the mice were taped with experimental adhesive tape, at approximately 1 cm from the tip of the tail. The mice were individually suspended on an experimental shelf about 58 cm above a table top by attaching the adhesive tape at the tip of the tail to the experimental shelf. And after that, total immobility time was measured for 6 min in the absence of noise. The total immobility time was measured during the final 4 min of a 6 min test session and the data were expressed as mean and analyzed by one-way ANOVA followed by Tukey's HSD (Honestly Significant Difference) post hoc comparison.
# [6] = 2.5 mg/kg oral BID + restraint stress 2 hr daily for 14 days
# [7] = 5 mg/kg oral BID + restraint stress 2 hr daily for 14 days
compound,measurement,setting,value
"O=C(O)c1cc(NCCc2ccc(C(F)(F)F)cc2)ccc1O [compound 2, 2-hydroxy-5-[2-(4-trifluoromethyl-phenyl)-ethylamino]-benzoic acid]","% time spent in open arm, increase compared with the stressed group (control 2)",male C57BL/6 mice [1]; [6],24%
same,"% time spent in open arm, increase compared with the stressed group (control 2)",male C57BL/6 mice [1]; [7],23%
same,WIRS-induced gastric lesion index,Sprague-Dawley (SD) rats,definitely reduced
same,decrease of immobility time compared with the vehicle control group,male C57BL/6 mice [2]; 1.25 mg/kg oral BID,31%
same,decrease of immobility time compared with the vehicle control group,male C57BL/6 mice [2]; 2.5 mg/kg oral BID,34%
same,decrease of immobility time compared with the vehicle control group,male C57BL/6 mice [2]; 5 mg/kg oral BID,30%
same,decrease of immobility time compared with the vehicle control group,male C57BL/6 mice [2]; 12.5 mg/kg oral BID,34%
same,decrease of immobility time compared with stressed control group (control 2),male C57BL/6 mice [3]; [6],32%
same,decrease of immobility time compared with unstressed group (control 1),male C57BL/6 mice [3]; 2.5 mg/kg oral BID for 2 weeks,21%
same,decrease of immobility time compared with stressed control group (control 2),male C57BL/6 mice [3]; [7],39%
same,decrease of immobility time compared with unstressed group (control 1),male C57BL/6 mice [3]; 5 mg/kg oral BID for 2 weeks,26%
same,"locomotor activity (open field, 5 min)",Male ICR mice [4],not different among groups
same,decrease of total immobility time compared with the control group,Male ICR mice [5]; 1.25 mg/kg oral,46%
same,decrease of total immobility time compared with the control group,Male ICR mice [5]; 2.5 mg/kg oral,43%
same,decrease of total immobility time compared with the control group,Male ICR mice [5]; 5 mg/kg oral,42%
same,decrease of total immobility time compared with the control group,Male ICR mice [5]; 12.5 mg/kg oral,38%
same,decrease of total immobility time compared with the control group,Male ICR mice [5]; 25 mg/kg oral,54%
same,decrease of total immobility time compared with the control group,Male ICR mice [5]; 50 mg/kg oral,57%
